Measurements as given in patent US10125134B2 (Mirati Therapeutics, Inc., priority 2016, dated 2018).
pIC50: −log10 of the molar value. Read-outs that look alike come from different tables or passages of the source.

Assays:
KRas G12C = KRas G12C (Homo sapiens, UniProt P01116, C118S/C51S/C80L/G12C); experiment: KRas G12C Modification Assay (LCMS detection of covalent adduct); assay type: binding; details: normalized percent of control; tested at 5 μM concentration for 3 hours
Summary of the method: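 Covalent modification was read by reverse-phase LC/MS of intact protein after compound exposure, each reaction stopped at its time point with 25 mM acetic acid. Unmodified-protein signal, taken as percent of total, was normalised to untreated protein and reported as POC.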

[1] = tested on: NCI-H358 cells (express KRas G12C), Phospho-ERK; experiment: Cellular inhibition of KRas G12C: Phospho-ERK in NCI-H358 cells; assay type: cell-based; details: Homo sapiens, pERK(Thr202/Tyr204) normalized with GAPDH, NCI-H358 cells, 3 hours, read-out: IC50
Summary of the method: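 IC50 derived by 4-parameter fit of GAPDH-normalized pERK(Thr202/Tyr204) signal, as percent of DMSO control. Signal came from in-cell immunodetection with infrared secondaries after 3 h compound exposure of KRas G12C NCI-H358 cells at 0.5% DMSO.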

C=CC(=O)N1CCN(c2nc(OCC3CCN(CCOC)C3)nc3c2CCN(c2cc(O)cc4ccccc24)C3)CC1 (stereo not drawn) [Example 103, 1-(4-(7-(3-hydroxynaphthalen-1-yl)-2-((1-(2-methoxyethyl)pyrrolidin-3-yl)methoxy)-5,6,7,8-tetrahydropyrido[3,4-d]pyrimidin-4-yl)piperazin-1-yl)prop-2-en-1-one]
POC (KRas G12C): C (“C”>50% POC)
pIC50 ([1]; NCI-H358, 3 h): 6.00 to 10.00

C=CC(=O)N1CCN(c2nc(OCCN(C)CCO)nc3c2CCN(c2cc(O)cc4ccccc24)C3)CC1 [Example 83, 1-(4-(2-(2-((2-hydroxyethyl)(methyl)amino)ethoxy)-7-(3-hydroxynaphthalen-1-yl)-5,6,7,8-tetrahydropyrido[3,4-d]pyrimidin-4-yl)piperazin-1-yl)prop-2-en-1-one]
POC (KRas G12C): C (“C”>50% POC)
pIC50 ([1]; NCI-H358, 3 h): < 6.00

CN(C)C/C=C/C(=O)N1CCN(c2nc(OC[C@@H]3CCCN3C)nc3c2CCN(c2cccc(Cl)c2C(F)(F)F)C3)C[C@@H]1CC#N [Example 426, 2-((S)-4-(7-(3-chloro-2-(trifluoromethyl)phenyl)-2-(((S)-1-methylpyrrolidin-2-yl)methoxy)-5,6,7,8-tetrahydropyrido[3,4-d]pyrimidin-4-yl)-1-((E)-4-(dimethylamino)but-2-enoyl)piperazin-2-yl)acetonitrile]
POC (KRas G12C): C (“C”>50% POC)
pIC50 ([1]; NCI-H358, 3 h): 6.00 to 10.00

C=CC(=O)N1CCN(c2nc(OC[C@@H]3CCCN3C(C)C)nc3c2CCN(c2cc(O)cc4ccccc24)C3)CC1 [Example 145, 1-[4-[7-(3-hydroxy-1-naphthyl)-2-[[(2S)-1-isopropylpyrrolidin-2-yl]methoxy]-6,8-dihydro-5H-pyrido[3,4-d]pyrimidin-4-yl]piperazin-1-yl]prop-2-en-1-one]
POC (KRas G12C): C (“C”>50% POC)
pIC50 ([1]; NCI-H358, 3 h): 6.00 to 10.00

C=CC(=O)N1CCN(c2nc(OC[C@@H]3CCN(C)C3)nc3c2CCN(c2cccc4ccccc24)C3)CC1CC#N (stereo partly drawn) [Example 177, 2-[4-[2-[[(3R)-1-methylpyrrolidin-3-yl]methoxy]-7-(1-naphthyl)-6,8-dihydro-5H-pyrido[3,4-d]pyrimidin-4-yl]-1-prop-2-enoyl-piperazin-2-yl]acetonitrile]
POC (KRas G12C): C (“C”>50% POC)
pIC50 [1]: 6.00 to 10.00

C=CC(=O)N1CCN(c2nc(OCC(C)(C)N(C)C)nc3c2CCN(c2cccc4ccccc24)C3)CC1CC#N (stereo not drawn) [Example 269, 2-(1-acryloyl-4-(2-(2-(dimethylamino)-2-methylpropoxy)-7-(naphthalen-1-yl)-5,6,7,8-tetrahydropyrido[3,4-d]pyrimidin-4-yl)piperazin-2-yl)acetonitrile]
POC (KRas G12C): C (“C”>50% POC)
pIC50 ([1]; NCI-H358, 3 h): 6.00 to 10.00

C=CC(=O)N1CCN(c2nc(OCCCN3C[C@@H]4C[C@H]3CO4)nc3c2CCN(c2cccc4ccccc24)C3)CC1CC#N (stereo partly drawn) [Example 154, 2-[4-[7-(1-naphthyl)-2-[3-[(1S,4S)-2-oxa-5-azabicyclo[2.2.1]heptan-5-yl]propoxy]-6,8-dihydro-5H-pyrido[3,4-d]pyrimidin-4-yl]-1-prop-2-enoyl-piperazin-2-yl]acetonitrile]
POC (KRas G12C): C (“C”>50% POC)
pIC50 ([1]; NCI-H358, 3 h): 6.00 to 10.00

C=CC(=O)N1CCN(c2nc(OCCCN(C)C)nc3c2CCN(c2cc(O)cc4ccccc24)C3)CC1 [Example 10, 1-(4-(2-(3-(dimethylamino)propoxy)-7-(3-hydroxynaphthalen-1-yl)-5,6,7,8-tetrahydropyrido[3,4-d]pyrimidin-4-yl)piperazin-1-yl)prop-2-en-1-one]
POC (KRas G12C): C (“C”>50% POC)
pIC50 ([1]; NCI-H358, 3 h): < 6.00

C=CC(=O)N1CCN(c2nc(NCCCN3CCOCC3)nc3c2CCN(c2cc(O)cc4ccccc24)C3)CC1 [Example 133, 1-[4-[7-(3-hydroxy-1-naphthyl)-2-(3-morpholinopropylamino)-6,8-dihydro-5H-pyrido[3,4-d]pyrimidin-4-yl]piperazin-1-yl]prop-2-en-1-one]
POC (KRas G12C): C (“C”>50% POC)
pIC50 [1]: < 6.00
